Laboratory results reported in ChEMBL document CHEMBL1687857, “Stereumins H-J, stereumane-type sesquiterpenes from the fungus Stereum sp” (J Nat Prod, 2011).
The source made the active and inactive calls.

Assays:
[1] = system: Escherichia coli; assay: Antimicrobial activity against Escherichia coli at 50 ug/ml by disk diffusion method; format: functional, organism-based
[2] = system: Staphylococcus aureus; assay: Antimicrobial activity against Staphylococcus aureus at 50 ug/ml by disk diffusion method; format: functional, organism-based
[3] = system: Candida albicans; assay: Antimicrobial activity against Candida albicans at 50 ug/ml by disk diffusion method; format: functional, organism-based
[4] = system: Panagrellus redivivus; assay: Antinematodal activity against Panagrellus redivivus at 100 ug/ml by disk diffusion method; format: functional, organism-based
[5] = system: HL-60; assay: Cytotoxicity against human HL60 cells at 40 uM by MTT assay; format: functional, cell-based
[6] = system: SMMC-7721; assay: Cytotoxicity against human SMMC7721 cells at 40 uM by MTT assay; format: functional, cell-based
[7] = system: A549; assay: Cytotoxicity against human A549 cells at 40 uM by MTT assay; format: functional, cell-based

C=C1[C@H](O)[C@@H]2[C@H]3[C@H](CC[C@]2(C)O)[C@@H](C)CC(=O)[C@@]13O
inactive: inhibition [1] | inhibition [2] | inhibition [3] | Activity [4] | Activity [5] | Activity [6] | Activity [7]

C=C1[C@H](O)[C@@H]2[C@H]3[C@H](CC[C@]2(C)O)[C@@H](C)C[C@H](O)[C@@]13O
inactive: inhibition [1] | inhibition [2] | inhibition [3] | Activity [4] | Activity [5] | Activity [6] | Activity [7]

C=C1[C@@H](O)[C@@H]2[C@H]3[C@H](CC[C@@]2(C)O)[C@@H](C)CC(=O)[C@@]13O
inactive: inhibition [1] | inhibition [2] | inhibition [3] | Activity [4] | Activity [5] | Activity [6] | Activity [7]
